Reference: ChEMBL document CHEMBL1201862, “PubChem BioAssay data set” (2004)
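In this assay, cells in 96-well plates receive the compound at five concentrations for 48 hours. Endpoints are linearly interpolated between the surrounding concentrations. GI50 is the concentration that inhibits growth by half.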 Active and inactive are the calls of the source. Rule as the data show it: active = GI50 up to about 1.1 µM and inactive = higher.

Key:
Experiment in all cases: growth of human tumour cells (NCI), 48 h
MDA-MB-231 = tested on: MDA-MB-231
SK-MEL-28 = tested on: SK-MEL-28
NCI/ADR-RES = tested on: NCI/ADR-RES
SF-268 = tested on: SF-268
SK-MEL-5 = tested on: SK-MEL-5
LXFL 529 = tested on: LXFL 529
MOLT-4 = tested on: MOLT-4
ACHN = tested on: ACHN
MCF7 = tested on: MCF7
SF-539 = tested on: SF-539
HT-29 = tested on: HT-29
SNB-75 = tested on: SNB-75
DU-145 = tested on: DU-145
NCI-H226 = tested on: NCI-H226
KM12 = tested on: KM12
A498 = tested on: A498
HCC 2998 = tested on: HCC 2998
HCT-15 = tested on: HCT-15
Malme-3M = tested on: Malme-3M
UACC-257 = tested on: UACC-257

Structure (SMILES)	GI50 (MDA-MB-231)	GI50 (SK-MEL-28)	GI50 (NCI/ADR-RES)	GI50 (SF-268)	GI50 (SK-MEL-5)	GI50 (LXFL 529)	GI50 (MOLT-4)	GI50 (ACHN)	GI50 (MCF7)	GI50 (SF-539)	GI50 (HT-29)	GI50 (SNB-75)	GI50 (DU-145)	GI50 (NCI-H226)	GI50 (KM12)	GI50 (A498)	GI50 (HCC 2998)	GI50 (HCT-15)	GI50 (Malme-3M)	GI50 (UACC-257)
COc1cc2c(c(OC)c1OC)-c1ccc(SC)c(=O)cc1C(NC(=O)c1ccccc1)CC2 (centres undefined)	< 0.01 µM (active)	0.305 µM (active)	0.0103 µM (active)	< 0.01 µM (active)	< 0.01 µM (active)	< 0.01 µM (active)	< 0.01 µM (active)	< 0.01 µM (active)	< 0.01 µM (active)	0.0118 µM (active)	< 0.01 µM (active)	0.167 µM (active)	< 0.01 µM (active)	0.0465 µM (active)	< 0.01 µM (active)	< 0.01 µM (active)	< 0.01 µM (active)	< 0.01 µM	< 0.01 µM (active)	0.526 µM (active)
CCn1c2c(c3ccccc31)[C@@H](c1ccc(Cl)cc1)CC1C(=O)N(c3ccccc3)C(=O)C21 (some centres undefined)	–	> 100 µM (inactive)	–	77.8 µM (inactive)	> 100 µM (inactive)	> 100 µM (inactive)	42.7 µM (inactive)	58.6 µM (inactive)	–	31.8 µM (inactive)	65.5 µM (inactive)	71.9 µM (inactive)	–	45.6 µM (inactive)	> 100 µM (inactive)	69.7 µM (inactive)	86.9 µM (inactive)	> 100 µM	70.6 µM (inactive)	> 100 µM (inactive)
CC1=C(c2cc(C(=O)Nc3cc(C)ccc3C)nc(N)n2)Sc2ccccc2N1	–	> 100 µM (inactive)	–	> 100 µM (inactive)	> 100 µM (inactive)	> 100 µM (inactive)	> 100 µM (inactive)	> 100 µM (inactive)	–	> 100 µM (inactive)	> 100 µM (inactive)	> 100 µM (inactive)	–	> 100 µM (inactive)	> 100 µM (inactive)	> 100 µM (inactive)	> 100 µM (inactive)	> 100 µM	> 100 µM (inactive)	> 100 µM (inactive)
COc1cc(/C=C2\[C@H]3c4c(c(OC)c(C)c(OC)c4OC)C[C@@H](C(=O)N2Cc2ccccc2)N3C(=O)OCC(C)C)c(OC)c(C)c1OC	–	> 100 µM (inactive)	–	> 100 µM (inactive)	26.2 µM (inactive)	> 100 µM (inactive)	12.3 µM (inactive)	> 64.3 µM (inactive)	–	> 100 µM (inactive)	> 84.5 µM (inactive)	> 83.2 µM (inactive)	–	1.16 µM (inactive)	> 100 µM (inactive)	> 65.9 µM (inactive)	> 78.9 µM (inactive)	> 100 µM	> 100 µM (inactive)	16.6 µM (inactive)
C[n+]1c(Cl)cn2c3nc4ccccc4nc3c([O-])c(C#N)c21	> 100 µM (inactive)	> 100 µM (inactive)	> 100 µM (inactive)	> 81.3 µM (inactive)	> 4.65 µM (inactive)	> 100 µM (inactive)	> 100 µM (inactive)	99.1 µM (inactive)	18.1 µM (inactive)	9.31 µM (inactive)	> 100 µM (inactive)	> 54.6 µM (inactive)	> 100 µM (inactive)	> 100 µM (inactive)	> 10 µM (inactive)	> 62.7 µM (inactive)	> 10 µM (inactive)	> 10 µM	> 100 µM (inactive)	> 100 µM (inactive)
CC(C)=C1CCC(CN2CCOCC2)C1=O (centres undefined)	17.4 µM (inactive)	14.9 µM (inactive)	13.3 µM (inactive)	15.2 µM (inactive)	15.9 µM (inactive)	2.38 µM (inactive)	2.34 µM (inactive)	9.84 µM (inactive)	4.14 µM (inactive)	17.4 µM (inactive)	8.65 µM (inactive)	4.72 µM (inactive)	16.4 µM (inactive)	21.2 µM (inactive)	29.4 µM (inactive)	33.7 µM (inactive)	15.4 µM (inactive)	5.22 µM	3.58 µM (inactive)	16.2 µM (inactive)
COC(=O)Nc1nc2cc(Br)ccc2[nH]1	–	> 100 µM (inactive)	–	> 100 µM (inactive)	8.75 µM (inactive)	47.2 µM (inactive)	53.8 µM (inactive)	95.5 µM (inactive)	–	22.6 µM (inactive)	16 µM (inactive)	56 µM (inactive)	–	> 100 µM (inactive)	9.29 µM (inactive)	67.8 µM (inactive)	33.6 µM (inactive)	8.34 µM	37.1 µM (inactive)	> 100 µM (inactive)
